Test results: patent US12697366B2, “Thermogenic compositions and methods” (Ohio State Innovation Foundation, priority 2016, dated 2026)

How the values were obtained:
3T3-L1 preadipocytes = assay: FD-glucose uptake in 3T3-L1 preadipocytes; format: cell-based, mouse; conditions: for glucose uptake compared to non-stimulated 3T3-L1 preadipocytes: 30 mins, insulin 10 μg/ml, EREG 50 ng/ml, forskolin 4 μg/ml
Method: Non-differentiated, 90% confluent 3T3-L1 cells were starved with glucose-deprived medium for 40 min. Then cells were treated in the presence and absence of different concentrations of nanoscaffold #2 and bovine insulin (200 μg/mL), all of reagents dissolved in the same glucose-deprived medium but containing fluorescent-D (FD)-glucose for 80 min. Thereafter, the FD glucose uptake was measured according to manufacturer's instructions (Cayman Chemical, USA, cat #600471). […] Non-differentiated, 90% confluent 3T3-L1 cells treated in the presence and absence of different concentrations of nanoscaffold #2 and bovine insulin (10 μg/mL) or mouse epiregulin (EREG, 0.05 μg/mL) and incubated for 24 h. Then cells were starved with glucose-deprived medium for 40 min and, then incubated with fluorescent-D (FD)-glucose for 80 min. Thereafter, the FD glucose uptake was measured according to manufacturer's instructions (Cayman Chemical, USA, cat #600471). Data are shown as percent of uptake in the presence of insulin (100%).
Non-differentiated, 90% confluent 3T3-L1 cells treated in the presence of bovine insulin (10 μg/mL), mouse epiregulin (EREG, 0.05 μg/mL), or their combinations and incubated for 24 h. Then cells were starved with glucose-deprived medium for 40 min and, then incubated with fluorescent-D (FD)-glucose for 80 min. Thereafter, the FD glucose uptake was measured according to manufacturer's instructions (Cayman Chemical, USA, cat #600471).
Non-differentiated, 90% confluent 3T3-L1 cells were starved with glucose-deprived medium for 50 min. Then cells were treated in the presence and absence of different concentrations of mouse recombinant IGFBP4 with and without nanoscaffold #2 and human insulin (10 μg/mL). All of reagents were dissolved in the same glucose-deprived medium but containing fluorescent-D (FD)-glucose for 90 min. Thereafter, the FD glucose uptake was measured according to manufacturer's instructions (Cayman Chemical, USA, cat #600471).
Glucose uptake assay was performed using glucose uptake cell-based assay kit (Cayman Chemical, Ann Arbor, MI). 3T3-L1 or human preadipocytes were cultured at a density of 5×10^4 per well into a 96-well plate (n=7) in high glucose media and grown overnight. Old cell culture medium was removed the next day and washed with PBS to remove residual glucose. Supplied 2-deoxy-2-[(7-nitro-2,1,3-benzoxadiazol-4-yl)amino]-D-glucose) (2-NBDG) was diluted to 150 μg/mL in DMEM medium without glucose, phenol red, L-glutamine, sodium pyruvate, and HEPES (Life technologies, Grand Island, New York). 100 μL of 2-NBDG glucose free medium with or without recombinant EREG and other treatments was added to the plated cells. After incubating at 37° C. for 30 minutes, cells were washed gently two times with 200 μL of glucose assay buffer. 100 μL of the assay buffer was added to each well and measured for fluorescence at an excitation/emission of 485/535 nm.
Fluorescence glucose uptake (FD-glucose assay) was performed as described PMID: 32065973, using insulin, 1.7 μM and different AACs at concentration 0.1 μM.
FD-glucose uptake in mouse 3T3-L1 preadipocytes (n=8 per treatment) treated with vehicle (Veh; PBS, open bar) or hINS (1.7 μM), mouse leptin (mLep; 12.5 nM, hatched bar), or AAC2 (0.1 μM black bar) in the presence and absence of GLUT1 inhibitor (BAY-876; 10 nM in DMSO). Cells were pre-treated with or without BAY-876 for 40 min and then FD glucose and treatment reagents were added for additional 80 min of incubation. Data (%) was normalized to FD-glucose uptake in control (Veh) 3T3-L1 cells without inhibitor (100%). Student's independent t-test.

GLUT4 = assay: GLUT4-GFP translocation in transfected NIH-3T3 cells (confocal microscopy); format: cell-based; conditions: insulin 10 μg/mL, nanoscaffold 10 μM
Text: FIGS. 30A to 30D show translocation of GLUT4 (the major glucose transporter of adipocytes). Non-differentiated NIH-3[…][…]-GFP plasmid ([…] #52872) on Petri-35 dishes with coverslip ([…], cat #[…]-1.5-14-C, USA). […] FIG. 30A: GLUT4 (white vesicles) in cells (arrow) treated with vehicle are mainly in the cytosol. […] All images were taken at 60× magnification.

[1] = system: iAb (omental) fat explants; assay: LEP release from iAb (omental) fat explants of an obese patient (ELISA); format: cell-based, human; conditions: different EREG concentrations, 2 h
Method: FIGS. 14A to 14N show EREG induces expression of thermogenic and PPARα-target genes, suppresses inflammatory genes, and stimulates leptin secretion. FIGS. 14A to 14H and 14L: Markers for thermogenesis, adipogenesis, and inflammatory genes were analyzed using homogenates from whole iAb fat pads isolated from Veh- (white bars) and EREG-treated (black bars) DIO mice (Study 3). Gene expression was quantified using a customized NanoString panel. Data represent mean±SD, n.s.,—non-significant. FIG. 14I: LEP was measured in plasma in the same mice by ELISA. Data (mean±SD) are shown as percent to control (Veh, 100%) and is indicated as a dashed line. FIG. 14J: LEP release after stimulation with different concentrations of recombinant human EREGs was measured in explants of iAb (omental) tissue obtained from an obese insulin resistant patient. FIG. 14K: LEP release after stimulation of explants from same donor with and without EREG (50 ng/mL) in the presence and absence of insulin (Ins, 10 μg/mL), MAPK-I, EGFR-I, PI3K-I. Inhibitors concentrations were described in FIG. 1. FIG. 14M: LEP release after stimulation of iAb fat explants (2 h) from WT mice with different concentrations of recombinant mouse EREG. Experiment was repeated in three different WT mice. Data (mean±SD) are shown as percent to control (Veh, 100%). FIG. 14N: LEP release following stimulation of iAb fat explants (2 h) from WT mice with inhibitors of EGFR (10 μM) and MAPK (10 μM) in the presence or absence of EREG (50 ng/ml). Data (mean±SD) are shown as percent to control (Veh, 100%).
Abdominal fat tissue obtained from an obese patient was excised into 35 mg sections for stimulation with EREG. Explants were stimulated with EREG in DMEM containing 1% FBS for 2 h. Media was collected after 2 h, lyophilized and reconstituted in 120 μL deionized water for leptin detection using ELISA kit (Alpco, Salem, NH).

Substance | glucose uptake compared to non-stimulated 3T3-L1 preadipocytes (3T3-L1 preadipocytes) [%] | glucose uptake in preadipocytes (3T3-L1 preadipocytes; hINS 1.7 μM, AAC2 0.1 μM, 80 min, FIG. 42A) | GLUT4 translocation (GLUT4) | release of LEP from iAb fat explants [1] | glucose uptake, dose dependence (3T3-L1 preadipocytes; different EREG concentrations)
insulin: insulin (bovine or human) | 174 | increase | translocated from cytosol to membrane | – | –
EREG: Epiregulin, member of the epidermal growth factor family; recombinant mouse or human protein | 187 | – | – | dose dependent release | dose-dependent fashion
